pEC50, pIC50: −log10 of the molar value. In brackets after ≈: the same amount, converted by molar mass.
Legend:
[1] = Cytotoxicity against human C8166 cells assessed as inhibition of cell viability at CC50 after 3 days by MTT assay; assay type: cell-based; conditions: read-out: INH
[2] = Cytotoxicity against human C8166 cells assessed as inhibition of cell viability after 3 days by MTT assay; assay type: cell-based
[3] = Antiviral activity against wild type HIV1 BH10 infected in human C8166 cells after 3 days by luciferase reporter gene assay; assay type: functional, cell-based, Human immunodeficiency virus type 1 BH10; conditions: Human immunodeficiency virus 1, C8166, 72 h
[4] = Inhibition of HIV1 BH10 reverse transcriptase using poly(rA)/oligo(dT)15 as substrate after 60 mins by fluorescence assay; design: species or system Human immunodeficiency virus type 1 BH10
[5] = Apparent permeability across human Caco2 cells at 10 uM by LC-MS/MS analysis; assay type: ADME, cell-based; conditions: Caco-2
[6] = Solubility of the compound in phosphate buffer at pH 2 after 24 hrs by LC-MS analysis; assay type: physicochemical
[7] = Solubility of the compound in phosphate buffer at pH 6.8 after 24 hrs by LC-MS analysis; assay type: physicochemical
[8] = test system: Human immunodeficiency virus type 1 BH10; assay: Selectivity ratio of EC50 for HIV1 BH10 harboring reverse transcriptase K103N/Y181C double mutant to EC50 for wild type HIV1 BH10; assay type: functional
[9] = test system: Human immunodeficiency virus type 1 BH10; assay: Selectivity ratio of EC50 for HIV1 BH10 harboring reverse transcriptase Y115F/M184V double mutant to EC50 for wild type HIV1 BH10; assay type: functional
[10] = test system: Human immunodeficiency virus type 1 BH10; assay: Selectivity ratio of EC50 for HIV1 BH10 harboring reverse transcriptase M184V mutant to EC50 for wild type HIV1 BH10; assay type: functional
[11] = test system: Human immunodeficiency virus type 1 BH10; assay: Selectivity ratio of EC50 for HIV1 BH10 harboring reverse transcriptase K65R mutant to EC50 for wild type HIV1 BH10; assay type: functional
[12] = test system: Human immunodeficiency virus type 1 BH10; assay: Selectivity ratio of EC50 for HIV1 BH10 harboring reverse transcriptase Y115F mutant to EC50 for wild type HIV1 BH10; assay type: functional
[13] = Ratio of EC50 for wild type HIV1 BH10 infected in human C8166 cells in presence of serum to EC50 for wild type HIV1 BH10 infected in human C8166 cells in absence of serum; assay type: functional, Human immunodeficiency virus type 1 BH10
[14] = Ratio of CC50 for human C8166 cells to EC50 for wild type HIV1 BH10 infected in human C8166 cells
[15] = Half life in human liver microsomes at 1 uM by LC-MS/MS analysis; assay type: ADME, Microsome
[16] = Half life in Sprague-Dawley rat liver microsomes at 1 uM by LC-MS/MS analysis; assay type: ADME, Microsome
[17] = n-Octanol-phosphate buffer partition coefficient, log D of the compound at 0.5 mg after 24 hrs by LC-MS analysis; assay type: physicochemical

Row | Structure (SMILES) | CC50 at 72 h [2] [nM] | pEC50 [3] | pIC50 [4] | further results
1 | CCNCc1nc2cc(-c3nc(=O)n(CCOC)c4c3oc3ccc(Br)cc34)ccc2n1C | > 4400 | 6.27 | 7.38 | cytotoxicity at 72 h [1]: 20%
2 | COCCn1c(=O)nc(-c2ccc(C(=O)NCCN(C)C)cc2)c2oc3ccccc3c21 | – | < 5.03 | 6.02 | –
3 | COCCn1c(=O)nc(-c2ccc(N3CCNCC3)cc2)c2oc3ccc(Cl)cc3c21 | 2700 | 6.76 | 8.00 | –
4 | CCNCC(=O)Nc1ccc(-c2nc(=O)n(CCOC)c3c2oc2cc(-c4ccc(CN(C)C)cc4)ccc23)cc1 | 1000 | 7.28 | 8.13 | –
5 | O=c1nc(-c2ccccc2)c2oc3ccc(Cl)cc3c2n1CCN1CCCC1 | > 7300 | 5.43 | 6.23 | cytotoxicity at 72 h [1]: 6%
6 | O=c1nc(-c2ccccc2)c2oc3ccccc3c2n1CCN1CCCC1 | 18000 | 4.96 | 5.38 | –
7 | COCCn1c(=O)nc(-c2ccc(OCCN(C)C)cc2)c2oc3ccccc3c21 | – | 4.85 | 6.20 | –
8 | CCNCC(=O)Nc1ccc(-c2nc(=O)n(CCOC)c3c2oc2ccc(-c4ccc(CO)cc4)cc23)cc1 | > 1300 | 6.52 | 7.47 | –
9 | CN(C)CC(=O)Nc1ccc(-c2nc(=O)n(C)c3c2oc2ccccc23)cc1 | 7700 | 5.80 | 5.51 | –
10 | COCCn1c(=O)nc(-c2ccc(NC(=O)CN3CCCC3)cc2)c2oc3ccccc3c21 | 5950 | 5.96 | 6.41 | –
11 | O=c1nc(-c2ccccc2)c2oc3ccc(Cl)cc3c2n1CCN1CCOCC1 | – | – | 5.19 | –
12 | CCNCC(=O)Nc1ccc(-c2nc(=O)n(CCOC)c3c2oc2ccc(-c4ccccc4)cc23)cc1 | 2300 | 6.44 | 7.48 | –
13 | CCNCC(=O)Nc1ccc(-c2nc(=O)n(CCOC)c3c2oc2ccccc23)cc1 | 5100 | 6.17 | 7.14 | –
14 | CCNCC(=O)Nc1ccc(-c2nc(=O)n(CCOC)c3c2oc2cc(-c4ccc5c(c4)CCN(C)C5)ccc23)cc1 | 2100 | 7.06 | 8.07 | –
15 | O=c1nc(-c2ccccc2)c2oc3ccc(Cl)cc3c2n1CCN1CCC(F)(F)C1 | > 4500 | 5.54 | 6.49 | –
16 | CCNCC(=O)Nc1ccc(-c2nc(=O)n(CCOC)c3c2oc2ccc(-c4ccc5c(c4)CCN(C)C5)cc23)cc1 | 4800 | 7.52 | 8.38 | Papp at 10 µM [5]: < 0.1 ×10⁻⁶ cm/s; solubility at 24 h [6]: > 822 µg/mL; solubility at 24 h [7]: 650 µg/mL (≈ 1150 µM); Ratio EC50 [8]: 1.1; Ratio EC50 [9]: 3.3; Ratio EC50 [10]: 1.1; Ratio EC50 [11]: 0.1; Ratio EC50 [12]: 2; Ratio EC50 [13]: 1.5; Ratio CC50/EC50 [14]: 137; half-life at 1 µM [15]: 1.55 h; half-life at 1 µM [16]: 2.33 h; logD at 24 h [17]: 2.4
17 | CNC1CCN(c2ccc(-c3nc(=O)n(CCOC)c4c3oc3ccc(Cl)cc34)cn2)C1 (centres undefined) | 4300 | 6.68 | 7.40 | –

Row | Structure (SMILES) | CC50 at 72 h [2] [nM] | pEC50 [3] | pIC50 [4] | further results
18 | Cn1c(=O)nc(-c2ccccc2)c2oc3ccccc3c21 | – | – | < 4.08 | –
19 | COCCn1c(=O)nc(-c2ccc(N3CCN(C)CC3)cc2)c2oc3ccc(Cl)cc3c21 | > 4500 | 6.37 | 7.62 | cytotoxicity at 72 h [1]: 18%
20 | CN1CCc2cc(-c3ccc4oc5c(-c6ccccc6)nc(=O)n(CCN6CCC(F)(F)C6)c5c4c3)ccc2C1 | – | 7.60 | 7.70 | Papp at 10 µM [5]: 0.55 ×10⁻⁶ cm/s; solubility at 24 h [6]: > 1000 µg/mL; solubility at 24 h [7]: < 0.1 µg/mL; Ratio EC50 [8]: 1.7; Ratio EC50 [9]: 14.8; Ratio EC50 [10]: 4.8; Ratio EC50 [11]: 0.3; Ratio EC50 [13]: 7.3; Ratio CC50/EC50 [14]: >46; half-life at 1 µM [15]: 0.317 h; half-life at 1 µM [16]: 0.1 h; logD at 24 h [17]: 3.9
21 | COCCn1c(=O)nc(-c2cnc(N3CCN(C)CC3)nc2)c2oc3ccccc3c21 | > 9500 | 6.16 | 6.81 | cytotoxicity at 72 h [1]: 40%
22 | CCNCC(=O)Nc1ccc(-c2nc(=O)n(CCOC)c3c2oc2ccc(Cl)cc23)cc1 | 3000 | 6.26 | 7.34 | –
23 | CN1CCc2cc(-c3ccc4oc5c(-c6ccccc6)nc(=O)n(CCN6CCCC6C(N)=O)c5c4c3)ccc2C1 (centres undefined) | – | 7.28 | 8.23 | Papp at 10 µM [5]: 0.17 ×10⁻⁶ cm/s; solubility at 24 h [6]: 781 µg/mL (≈ 1430 µM); solubility at 24 h [7]: 725 µg/mL (≈ 1320 µM); Ratio EC50 [8]: 1.7; Ratio EC50 [9]: 14.2; Ratio EC50 [10]: 5.8; Ratio EC50 [11]: 0.3; Ratio EC50 [13]: 8.4; Ratio CC50/EC50 [14]: >127; half-life at 1 µM [15]: 1.22 h; half-life at 1 µM [16]: 1 h; logD at 24 h [17]: 3
24 | COCCn1c(=O)nc(-c2ccc(N3CCN(C)CC3)nc2)c2oc3ccc(Cl)cc3c21 | > 5800 | 6.05 | 7.12 | cytotoxicity at 72 h [1]: 37%
25 | COCCn1c(=O)nc(-c2ccc(NC(=O)CN(C)C)cc2)c2oc3ccccc3c21 | > 11000 | 5.44 | 5.92 | cytotoxicity at 72 h [1]: 15%
26 | CCNCC(=O)Nc1ccc(-c2nc(=O)n(CCOC)c3c2oc2ccc(-c4cccnc4)cc23)cc1 | > 5100 | 6.70 | 7.57 | cytotoxicity at 72 h [1]: 33%
27 | COCCn1c(=O)nc(-c2ccc(NC(=O)C(C)N(C)C)cc2)c2oc3ccccc3c21 (centres undefined) | > 11000 | 5.36 | 5.85 | cytotoxicity at 72 h [1]: 14%
28 | CCNCC(=O)Nc1ccc(-c2nc(=O)n(CCOC)c3c2oc2ccc(-c4ccc(CN(C)C)cc4)cc23)cc1 | 3900 | 7.03 | 7.92 | –
29 | NC(=O)C1CCCN1CCn1c(=O)nc(-c2ccccc2)c2oc3ccc(Cl)cc3c21 (centres undefined) | > 6700 | 5.59 | 6.19 | –
30 | COCCn1c(=O)nc(-c2ccnc(N3CCN(C)CC3)c2)c2oc3ccc(Br)cc3c21 | – | – | < 5.30 | –
31 | CNCCNc1ccc(-c2nc(=O)n(CCOC)c3c2oc2ccc(Cl)cc23)cc1 | 960 | 7.06 | 8.00 | –
32 | COCCn1c(=O)nc(-c2ccc(COCCN(C)C)cc2)c2oc3ccccc3c21 | – | < 4.96 | 6.09 | –
33 | COCCn1c(=O)nc(-c2ccc(NCCN3CCCC3)cc2)c2oc3ccccc3c21 | > 7400 | 5.62 | 6.92 | –
34 | O=c1nc(-c2ccccc2)c2oc3ccccc3c2n1CCN1CCOCC1 | – | – | < 4.59 | –

From ChEMBL document CHEMBL2375293, “Identification of benzofurano[3,2-d]pyrimidin-2-ones, a new series of HIV-1 nucleotide-competing reverse transcriptase inhibitors” (Bioorg Med Chem Lett, 2013)
